This is an account of results in patent US9975930B2, “Lantibiotic derivatives and process for their preparation” (NAICONS S.r.l., priority 2012, dated 2018).

Each structure is given as a SMILES string.

Experiment in all cases: MIC by broth microdilution
Assay [1] deals with Enterococcus faecium VanS. The class given is cell-based. As to conditions: code 568, CAMHB broth.
In another assay the test system is E. faecium VanA. The class given is cell-based, Enterococcus faecium. As to conditions: code 569; CAMHB broth; 20-24 hours at 35° C.
The test system of a further assay is Candida albicans. It is filed as cell-based. The conditions noted are these: code 145; RPMI-1640; 48 hours.
A further assay relates to S. aureus ATCC19636. The class given is cell-based, Staphylococcus aureus. As to conditions: code 819, CAMHB broth.
In another assay the test system is E. faecalis VanA. It is filed as cell-based. As to conditions: code 560; CAMHB broth; 20-24 hours at 35° C.
Another assay relates to E. faecalis VanS. It is filed as cell-based. As to conditions: code 559, CAMHB broth.
The test system of a further assay is S. pyogenes. The class given is cell-based. As to conditions: code 49; Todd Hewitt broth; 20-24 hours at 35° C.
The test system of assay [2] is Staphylococcus aureus Met-S ATCC6538P. The class given is cell-based. The conditions noted are these: code 100; CAMHB broth; 20-24 hours at 35° C.
A further assay relates to S. aureus ATCC 25923. It is filed as cell-based, Staphylococcus aureus. As to conditions: CAMHB broth; 20-24 hours at 35° C.
Assay [3] relates to Staphylococcus aureus Met-R. The class given is cell-based. As to conditions: code 1400; CAMHB broth; 20-24 hours at 35° C.

Regarding `CN[C@H](CC(C)C)C(=O)N[C@H]1C(=O)N[C@@H](CC(N)=O)C(=O)N[C@H]2C(=O)N[C@H]3C(=O)N[C@H](C(=O)N[C@H](C(=O)O)c4cc(O)cc(O)c4-c4cc3ccc4O)[C@H](O)c3ccc(c(Cl)c3)Oc3cc2cc(c3O[C@@H]2O[C@H](CO)[C@@H](O)[C@H](O)[C@H]2O[C@H]2C[C@](C)(N)[C@H](O)[C@H](C)O2)Oc2ccc(cc2Cl)[C@H]1O` [VA, vancomycin], the “Minimal inhibitory concentration (MIC)” value was 2 in assay [1] (+serum 30% (bovine serum)); 2 in [1] (20-24 hours at 35° C.); above 128 in the assay with E. faecium VanA; above 128 with Candida albicans; 1 with S. aureus ATCC19636 (+serum 30% (bovine serum)); 0.5 with S. aureus ATCC19636 (20-24 hours at 35° C.). Also, the “Minimal inhibitory concentration (MIC)” value was 2 with E. faecalis VanA; 2 in the assay on E. faecalis VanS (+serum 30% (bovine serum)); 1 with E. faecalis VanS (20-24 hours at 35° C.); 0.25 with S. pyogenes; 0.25 in [2]; 1 in the assay with S. aureus ATCC 25923. In addition, the “Minimal inhibitory concentration (MIC)” value in assay [3] is 0.5.
